How the values were obtained:
Test in all cases: Kinase selectivity, DiscoverX scanMAX Kinase assay panel (% control)
Type in all cases: binding
[1] = target: T1, kinases of the scanMAX Kinase assay panel (Homo sapiens, UniProt P10721, T670I/V559D); conditions: KIT(V559D, T670I); 1 uM
T1 construct: purchased DiscoverX Co. (contract measurement) scanMAX Kinase assay panel
In short: (§1)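 Read-out is % control, normalised so a positive-control compound sits at 0% and DMSO at 100%: (test − positive)/(negative − positive)×100. Each kinase received the compound at 1 uM in DMSO. A value below 35% counts as activity.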

[2] = target: T2, kinases of the scanMAX Kinase assay panel (Homo sapiens, UniProt Q96NX5); conditions: CAMK1G; 1 uM
T2 construct: purchased DiscoverX Co. (contract measurement) scanMAX Kinase assay panel
T2 sequence (Q96NX5 whole entry): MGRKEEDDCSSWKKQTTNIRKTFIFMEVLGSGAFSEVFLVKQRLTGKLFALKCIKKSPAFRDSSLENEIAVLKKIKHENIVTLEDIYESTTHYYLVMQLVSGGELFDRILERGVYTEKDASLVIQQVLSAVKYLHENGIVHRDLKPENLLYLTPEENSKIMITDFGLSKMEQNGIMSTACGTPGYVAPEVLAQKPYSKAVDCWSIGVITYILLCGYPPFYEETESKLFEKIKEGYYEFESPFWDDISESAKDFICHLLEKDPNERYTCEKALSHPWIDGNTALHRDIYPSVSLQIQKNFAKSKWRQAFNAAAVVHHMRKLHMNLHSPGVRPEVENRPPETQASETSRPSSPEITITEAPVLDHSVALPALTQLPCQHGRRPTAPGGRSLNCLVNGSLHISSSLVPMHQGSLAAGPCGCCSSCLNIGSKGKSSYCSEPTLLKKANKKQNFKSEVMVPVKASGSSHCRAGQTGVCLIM
In short: as §1

[3] = target: T3, kinases of the scanMAX Kinase assay panel (Homo sapiens, UniProt Q15208); conditions: NDR1; 1 uM
T3 construct: purchased DiscoverX Co. (contract measurement) scanMAX Kinase assay panel
T3 sequence (Q15208 whole entry): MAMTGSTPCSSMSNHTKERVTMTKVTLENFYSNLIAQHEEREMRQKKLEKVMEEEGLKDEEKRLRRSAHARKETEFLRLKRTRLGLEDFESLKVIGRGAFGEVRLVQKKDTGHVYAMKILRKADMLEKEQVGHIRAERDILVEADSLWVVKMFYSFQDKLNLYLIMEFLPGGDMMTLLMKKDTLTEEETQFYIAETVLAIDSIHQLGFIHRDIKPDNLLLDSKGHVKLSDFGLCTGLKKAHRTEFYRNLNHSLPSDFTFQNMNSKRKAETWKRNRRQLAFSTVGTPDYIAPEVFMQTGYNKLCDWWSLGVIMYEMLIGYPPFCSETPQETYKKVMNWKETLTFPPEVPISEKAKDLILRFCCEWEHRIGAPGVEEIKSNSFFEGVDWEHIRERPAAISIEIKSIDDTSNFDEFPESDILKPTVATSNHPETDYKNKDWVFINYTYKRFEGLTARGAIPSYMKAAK
In short: as §1

[4] = target: T4, kinases of the scanMAX Kinase assay panel (Homo sapiens, UniProt Q13554); conditions: CAMK2B; 1 uM
T4 construct: purchased DiscoverX Co. (contract measurement) scanMAX Kinase assay panel
T4 sequence (Q13554 whole entry): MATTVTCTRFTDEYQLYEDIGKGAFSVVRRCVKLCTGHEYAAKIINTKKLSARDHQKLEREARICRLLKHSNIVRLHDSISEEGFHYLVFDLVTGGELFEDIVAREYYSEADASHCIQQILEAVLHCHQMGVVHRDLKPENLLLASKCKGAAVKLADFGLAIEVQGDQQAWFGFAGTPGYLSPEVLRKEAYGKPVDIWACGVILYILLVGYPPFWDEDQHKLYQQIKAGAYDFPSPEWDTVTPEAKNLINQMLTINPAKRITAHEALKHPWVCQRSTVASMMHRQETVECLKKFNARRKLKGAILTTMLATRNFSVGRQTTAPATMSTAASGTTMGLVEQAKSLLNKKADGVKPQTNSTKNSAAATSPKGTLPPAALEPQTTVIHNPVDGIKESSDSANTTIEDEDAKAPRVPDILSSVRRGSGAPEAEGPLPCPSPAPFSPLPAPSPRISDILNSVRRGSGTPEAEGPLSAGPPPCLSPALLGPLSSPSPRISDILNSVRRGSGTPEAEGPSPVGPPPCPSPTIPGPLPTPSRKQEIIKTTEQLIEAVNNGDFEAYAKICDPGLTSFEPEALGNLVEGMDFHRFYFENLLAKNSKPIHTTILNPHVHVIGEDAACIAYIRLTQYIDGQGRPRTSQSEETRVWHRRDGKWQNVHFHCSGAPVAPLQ
In short: as §1

[5] = target: T5, kinases of the scanMAX Kinase assay panel (Homo sapiens, UniProt Q06187); conditions: BTK; 1 uM
T5 construct: purchased DiscoverX Co. (contract measurement) scanMAX Kinase assay panel
T5 sequence (Q06187 whole entry): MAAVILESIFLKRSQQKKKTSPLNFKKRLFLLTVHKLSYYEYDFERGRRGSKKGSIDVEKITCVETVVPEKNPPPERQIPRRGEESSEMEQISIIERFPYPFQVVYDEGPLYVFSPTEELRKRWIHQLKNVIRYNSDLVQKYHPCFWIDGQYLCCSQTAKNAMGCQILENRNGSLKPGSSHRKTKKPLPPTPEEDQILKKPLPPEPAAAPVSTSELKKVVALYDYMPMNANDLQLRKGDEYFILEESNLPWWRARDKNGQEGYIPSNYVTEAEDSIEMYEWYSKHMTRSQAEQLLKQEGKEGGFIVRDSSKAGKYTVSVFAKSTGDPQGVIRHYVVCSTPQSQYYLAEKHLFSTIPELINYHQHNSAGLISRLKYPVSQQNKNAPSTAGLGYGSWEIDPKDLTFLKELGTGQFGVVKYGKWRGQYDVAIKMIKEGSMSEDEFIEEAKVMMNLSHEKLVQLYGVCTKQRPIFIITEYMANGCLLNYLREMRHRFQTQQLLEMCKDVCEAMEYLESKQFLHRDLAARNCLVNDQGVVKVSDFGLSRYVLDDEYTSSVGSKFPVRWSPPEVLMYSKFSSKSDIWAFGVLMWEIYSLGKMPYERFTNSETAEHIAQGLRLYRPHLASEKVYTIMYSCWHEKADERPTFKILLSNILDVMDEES
In short: as §1

[6] = target: T6, kinases of the scanMAX Kinase assay panel (Homo sapiens, UniProt P51451); conditions: BLK; 1 uM
T6 construct: purchased DiscoverX Co. (contract measurement) scanMAX Kinase assay panel
T6 sequence (P51451 whole entry): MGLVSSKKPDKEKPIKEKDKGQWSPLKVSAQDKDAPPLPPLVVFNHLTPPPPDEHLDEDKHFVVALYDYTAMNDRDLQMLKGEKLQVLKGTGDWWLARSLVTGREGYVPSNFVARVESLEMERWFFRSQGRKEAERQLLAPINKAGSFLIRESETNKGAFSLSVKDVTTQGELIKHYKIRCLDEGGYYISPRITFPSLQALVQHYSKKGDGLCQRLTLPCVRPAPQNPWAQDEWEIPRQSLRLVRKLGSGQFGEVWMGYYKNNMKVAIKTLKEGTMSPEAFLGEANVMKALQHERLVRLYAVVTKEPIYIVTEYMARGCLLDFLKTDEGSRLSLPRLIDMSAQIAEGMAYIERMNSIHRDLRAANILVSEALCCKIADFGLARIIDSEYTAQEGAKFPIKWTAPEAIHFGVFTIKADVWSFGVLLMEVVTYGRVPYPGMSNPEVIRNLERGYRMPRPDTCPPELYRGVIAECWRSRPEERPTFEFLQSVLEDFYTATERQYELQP
In short: as §1

[7] = target: T7, kinases of the scanMAX Kinase assay panel (Homo sapiens, UniProt Q04771); conditions: ACVR1; 1 uM
T7 construct: purchased DiscoverX Co. (contract measurement) scanMAX Kinase assay panel
T7 sequence (Q04771 21-509): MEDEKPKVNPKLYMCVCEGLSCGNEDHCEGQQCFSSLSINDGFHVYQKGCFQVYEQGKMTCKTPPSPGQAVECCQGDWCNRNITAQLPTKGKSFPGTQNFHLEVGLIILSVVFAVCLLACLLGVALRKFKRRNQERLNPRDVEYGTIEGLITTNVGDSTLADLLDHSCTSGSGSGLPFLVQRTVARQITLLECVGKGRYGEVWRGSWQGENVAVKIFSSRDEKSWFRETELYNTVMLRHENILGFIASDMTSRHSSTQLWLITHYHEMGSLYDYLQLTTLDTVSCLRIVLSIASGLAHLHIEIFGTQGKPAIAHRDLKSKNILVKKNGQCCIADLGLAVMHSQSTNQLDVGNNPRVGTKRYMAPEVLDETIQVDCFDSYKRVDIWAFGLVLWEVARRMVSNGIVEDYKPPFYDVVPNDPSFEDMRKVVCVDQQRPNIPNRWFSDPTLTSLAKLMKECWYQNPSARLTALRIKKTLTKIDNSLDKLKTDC
In short: as §1

[8] = target: T8, kinases of the scanMAX Kinase assay panel (Homo sapiens, UniProt P10721, D816V); conditions: KIT(D816V); 1 uM
T8 construct: purchased DiscoverX Co. (contract measurement) scanMAX Kinase assay panel
T8 sequence (P10721 26-976 D816V): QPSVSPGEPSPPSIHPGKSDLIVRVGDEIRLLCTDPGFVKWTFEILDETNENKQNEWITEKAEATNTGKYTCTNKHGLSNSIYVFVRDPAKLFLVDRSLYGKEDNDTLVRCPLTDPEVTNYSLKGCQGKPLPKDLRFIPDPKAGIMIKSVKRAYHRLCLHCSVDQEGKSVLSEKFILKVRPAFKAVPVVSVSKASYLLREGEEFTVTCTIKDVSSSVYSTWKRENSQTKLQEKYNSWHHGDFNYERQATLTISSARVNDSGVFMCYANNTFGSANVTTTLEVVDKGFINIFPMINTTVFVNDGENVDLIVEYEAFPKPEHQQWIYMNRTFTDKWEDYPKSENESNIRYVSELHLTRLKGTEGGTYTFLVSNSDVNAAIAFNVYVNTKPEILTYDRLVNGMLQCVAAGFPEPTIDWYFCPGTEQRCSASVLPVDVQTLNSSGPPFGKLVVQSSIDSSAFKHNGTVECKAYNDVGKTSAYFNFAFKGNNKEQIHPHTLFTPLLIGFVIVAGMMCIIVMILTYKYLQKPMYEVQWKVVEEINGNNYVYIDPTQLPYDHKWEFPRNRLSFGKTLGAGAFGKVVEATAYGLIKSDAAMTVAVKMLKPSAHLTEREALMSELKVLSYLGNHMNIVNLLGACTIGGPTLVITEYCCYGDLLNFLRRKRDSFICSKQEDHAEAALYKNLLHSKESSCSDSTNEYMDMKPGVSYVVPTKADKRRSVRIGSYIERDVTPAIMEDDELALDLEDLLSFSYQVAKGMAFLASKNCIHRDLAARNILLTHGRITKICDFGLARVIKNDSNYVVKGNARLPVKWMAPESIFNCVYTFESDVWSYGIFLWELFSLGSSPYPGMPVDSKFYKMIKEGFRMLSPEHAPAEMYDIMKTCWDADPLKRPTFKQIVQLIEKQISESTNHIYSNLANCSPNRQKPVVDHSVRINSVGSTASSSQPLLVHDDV
In short: as §1

[9] = target: T9, kinases of the scanMAX Kinase assay panel (Homo sapiens, UniProt P48729); conditions: CSNK1A1; 1 uM
T9 construct: purchased DiscoverX Co. (contract measurement) scanMAX Kinase assay panel
T9 sequence (P48729 whole entry): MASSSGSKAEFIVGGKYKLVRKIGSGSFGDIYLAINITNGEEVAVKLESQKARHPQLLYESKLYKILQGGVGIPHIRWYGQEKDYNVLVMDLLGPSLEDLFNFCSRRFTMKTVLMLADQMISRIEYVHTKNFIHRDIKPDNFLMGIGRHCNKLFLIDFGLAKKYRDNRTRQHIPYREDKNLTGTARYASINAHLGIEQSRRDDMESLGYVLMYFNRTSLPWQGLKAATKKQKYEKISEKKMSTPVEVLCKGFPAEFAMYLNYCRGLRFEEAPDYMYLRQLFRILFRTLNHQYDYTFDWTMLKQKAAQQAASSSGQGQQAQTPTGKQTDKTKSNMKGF
In short: as §1

[10] = target: T10, kinases of the scanMAX Kinase assay panel (Homo sapiens, UniProt Q13237); conditions: PRKG2; 1 uM
T10 construct: purchased DiscoverX Co. (contract measurement) scanMAX Kinase assay panel
T10 sequence (Q13237 1-762): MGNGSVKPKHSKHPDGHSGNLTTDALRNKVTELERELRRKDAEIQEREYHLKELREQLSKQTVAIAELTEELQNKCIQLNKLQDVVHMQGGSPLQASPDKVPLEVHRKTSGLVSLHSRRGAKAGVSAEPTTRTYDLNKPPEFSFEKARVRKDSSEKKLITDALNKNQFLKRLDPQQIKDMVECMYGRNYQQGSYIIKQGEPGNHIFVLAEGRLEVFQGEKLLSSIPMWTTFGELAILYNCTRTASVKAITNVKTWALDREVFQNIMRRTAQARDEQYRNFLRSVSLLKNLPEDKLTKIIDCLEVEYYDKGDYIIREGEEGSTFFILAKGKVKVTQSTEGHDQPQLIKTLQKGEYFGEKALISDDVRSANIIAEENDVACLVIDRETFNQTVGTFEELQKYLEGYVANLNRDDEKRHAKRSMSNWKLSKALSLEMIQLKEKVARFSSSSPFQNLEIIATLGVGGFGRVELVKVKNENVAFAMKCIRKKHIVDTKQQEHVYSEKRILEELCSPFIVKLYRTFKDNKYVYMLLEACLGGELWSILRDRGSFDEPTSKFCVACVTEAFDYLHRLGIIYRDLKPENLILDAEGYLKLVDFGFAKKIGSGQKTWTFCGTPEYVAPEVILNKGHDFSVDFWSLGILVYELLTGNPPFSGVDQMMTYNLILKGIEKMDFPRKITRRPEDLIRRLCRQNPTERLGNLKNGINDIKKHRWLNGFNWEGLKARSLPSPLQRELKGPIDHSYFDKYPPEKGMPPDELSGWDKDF
In short: as §1

[11] = target: T11, kinases of the scanMAX Kinase assay panel (Homo sapiens, UniProt Q13523); conditions: PRP4; 1 uM
T11 construct: purchased DiscoverX Co. (contract measurement) scanMAX Kinase assay panel
In short: as §1

[12] = target: T12, kinases of the scanMAX Kinase assay panel (Homo sapiens, UniProt Q9P1W9); conditions: PIM2; 1 uM
T12 construct: purchased DiscoverX Co. (contract measurement) scanMAX Kinase assay panel
T12 sequence (Q9P1W9 whole entry): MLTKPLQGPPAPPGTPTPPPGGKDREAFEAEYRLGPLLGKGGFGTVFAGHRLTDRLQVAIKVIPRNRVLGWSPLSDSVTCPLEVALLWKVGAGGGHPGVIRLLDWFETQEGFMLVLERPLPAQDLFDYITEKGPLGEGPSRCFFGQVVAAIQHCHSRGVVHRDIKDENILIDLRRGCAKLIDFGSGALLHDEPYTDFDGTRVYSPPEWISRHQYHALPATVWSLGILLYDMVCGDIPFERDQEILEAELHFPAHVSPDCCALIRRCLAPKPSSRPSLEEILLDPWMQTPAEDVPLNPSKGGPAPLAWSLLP
In short: as §1

T1 sequence (P10721 26-976 V559D/T670I): as the sequence (P10721 26-976 D816V) above, with V534D, T645I, V791D counted along it

SMILES | remaining binding at 1 µM [1] [%] | remaining binding at 1 µM [2] [%] | remaining binding at 1 µM [3] [%] | remaining binding at 1 µM [4] [%] | remaining binding at 1 µM [5] [%] | remaining binding at 1 µM [6] [%] | remaining binding at 1 µM [7] [%] | remaining binding at 1 µM [8] [%] | remaining binding at 1 µM [9] [%] | remaining binding at 1 µM [10] [%] | remaining binding at 1 µM [11] [%] | remaining binding at 1 µM [12] [%]
CNc1nc(Nc2ccc(C(=O)N3CCOCC3)cc2OC)nc2[nH]cc(C#N)c12 [Example 1, 2-((2-methoxy-4-(morpholine-4-carbonyl)phenyl)amino)-4-(methylamino)-7H-pyrrolo[2,3-d]pyrimidine-5-carbonitrile] | 73 | 74 | 84 | 62 | 72 | 100 | 97 | 89 | 19 | 100 | 100 | 78
CC1(Nc2nc(Nc3cnn([C@H]4CCN(C5COC5)C[C@@H]4F)c3Cl)nc3[nH]cc(C#N)c23)CC1 [Example 52, 2-((5-chloro-1-((3S,4S)-3-fluoro-1-(oxetane-3-yl)piperidine-4-yl)-1H-pyrazole-4-yl)amino)((1-methylcyclopropyl)amino)-7H-pyrrolo[2,3-d]pyrimidine-5-carbonitrile] | 0.4 | 34 | 42 | 57 | 9.1 | 2.2 | 73 | 0.15 | 1.6 | 94 | 19 | 63
CCNc1nc(Nc2ccc(C(=O)N3CCC(N4CCOCC4)CC3)cc2OC)nc2[nH]cc(C(F)(F)F)c12 [Example 104, (4-((4-(ethylamino)-5-(trifluoromethyl)-7H-pyrrolo[2,3-d]pyrimidine-2-yl)amino)-3-methoxyphenyl)(4-morpholinopiperidine-1-yl)methanone] | 87 | 94 | 94 | 81 | 100 | 100 | 100 | 99 | 56 | 91 | 89 | 100
